Experimental data published in patent publication US10889812B2, “Short non-coding protein regulatory RNAs (sprRNAs) and methods of use” (University of Maryland, Baltimore, priority 2014, dated 2021).

How the values were obtained:
SKMES-1 = test: MTT assay, IC50 of CDDP in NSCLC cell lines; type: cell-based, Human; settings: SKMES-1, MTT assay
Description: (§1) Cell viability and cell growth curve assay were determined by MTT assay and trypan blue exclusion assay, respectively as described previously (Kirino, Y. & Mourelatos, Z. Mouse Piwi-interacting RNAs are 2′-O-methylated at their 3′ termini Nat Struct Mol Biol. 14, 347-348 (2007)). BrieflySpecifically, MTT (5 mg/ml) was added into cells and incubated at culture condition for 3 hours, removed the medium carefully and dissolved formazan in DMSO, assay was used to assess the surviving cells and OD values were measured using Microplate Reader Manager (Bio Rad) at wavelengths of 570/690 nm. For trypan blue exclusion assay, cells were washed in PBS for three times, and dyed in 0.4% tyrpan blue solution. Unstained viable cells were counted in hemocytometer chamber under microscope. Each experiment was performed three times independently.
(§2) To determine if piRNA-Ls play a role in chemo-sensitivity, we first selected 11 piRNA-Ls differentially expressed between NSCLC and HBE cells (Mei Y, Wang Y, Kumari P, et al. A piRNA-like small RNA interacts with and modulates p-ERM proteins in human somatic cells. Nat Commun 6, 7316. doi: 10.1038/ncomms8316 (2015)) and analyzed the relationship between the expression levels and the sensitivities to chemotherapeutic agents commonly used clinically for patients with NSCLC. We established doses of 50% inhibitory concentration (IC50) for CDDP, gemcitabine, and docetaxel in 4 SCC and 4 ADC cell lines based on 3-(4,5-dimethylthiazol-2-yl)-2,5-diphenyltetrazolium bromide (MTT) assay (Table 4). We then measured expression levels of the 11 selected piRNA-Ls using real-time RT-PCR before and 24 h after treatment with both IC50 (H) and IC25 (L) doses for each of the agents. […] Impact of gemcitabine and docetaxel in piR-L-138 expression was also determined in these NSCLC cell lines (FIG. 19). As CDDP is the backbone agent to treat patients with NSCLC, we selected CDDP as the representative agent to further determine the role of piR-L-138 in SCC cells' response to chemotherapy.

H226 = test: MTT assay, IC50 of CDDP in NSCLC cell lines; type: cell-based, Human
Description: as §1, §2

H1792 = test: MTT assay, IC50 of CDDP in NSCLC cell lines; type: cell-based, Human
Description: as §1, §2

H596 = test: MTT assay, IC50 of CDDP in NSCLC cell lines; type: cell-based, Human
Description: as §1, §2

H1437 = test: MTT assay, IC50 of CDDP in NSCLC cell lines; type: cell-based, Human
Description: as §1, §2

H1944 = test: MTT assay, IC50 of CDDP in NSCLC cell lines; type: cell-based, Human
Description: as §1, §2

H522 = test: MTT assay, IC50 of CDDP in NSCLC cell lines; type: cell-based, Human
Description: as §1, §2

H157 = test: MTT assay, IC50 of CDDP in NSCLC cell lines; type: cell-based, Human
Description: as §1, §2

piR-L-138 [1] = test: piR-L-138 expression by real-time RT-PCR after chemotherapeutic agent, SCC cell lines; type: cell-based, human; settings: all SCC cell lines, 24 h after treatment
Description: as §2

piR-L-138 [2] = test: piR-L-138 expression by real-time RT-PCR after chemotherapeutic agent, ADC cell lines; type: cell-based, human; settings: 24 h after treatment
Description: as §2

IC50 (SKMES-1): 10 µM | IC50 (H226): 40 µM | IC50 (H1792): 50 µM | IC50 (H596): 30 µM | IC50 (H1437): 50 µM | IC50 (H1944): 100 µM | IC50 (H522): 45 µM | IC50 (H157): 80 µM
SMILES: [NH2][Pt]([NH2])([Cl])[Cl] [CDDP, cisplatin]
piR-L-138 levels (piR-L-138 [1]): consistent and substantial increase of piR-L-138 levels | piR-L-138 expression (piR-L-138 [2]): no or much smaller increase of piR-L-138 expression
